# Reference: ChEMBL document CHEMBL4177762, “Combined Approach of Backbone Amide Linking and On-Resin N-Methylation for the Synthesis of Bioactive and Metabolically Stable Peptides” (J Med Chem, 2018)
# Active and inactive are the calls of the source. The rule behind the calls is not given here. Non-standard residues stand in square brackets, D forms with d. Residues, ends and D or L forms follow the SMILES beside them. *: point of attachment. NMeVal(β-OH) = CN[C@H](C(=O)O)C(C)(C)O; NH(4-OH-phenethyl) = Oc1ccc(CCN*)cc1; Val(3-OH) = CC(C)(O)[C@H](N)C(=O)O; NMeL = CN[C@@H](CC(C)C)C(=O)O; NHPhenethyl = c1ccc(CCN*)cc1; NMeV = CN[C@H](C(=O)O)C(C)C
# What was measured:
# Staphylococcus aureus [1] = experiment: Antibacterial activity against methicillin-resistant Staphylococcus aureus ATCC 43300 assessed as growth inhibition up to 128 ug/ml; type: functional, organism-based
# Micrococcus luteus = experiment: Antibacterial activity against Micrococcus luteus ATCC 9341 assessed as growth inhibition up to 128 ug/ml; type: functional, organism-based
# L6 = experiment: Cytotoxicity against rat L6 cells after 72 hrs by Alamar Blue assay; type: cell-based; settings: L6, 72 h
# Escherichia coli = experiment: Antibacterial activity against Escherichia coli ATCC 25922 assessed as growth inhibition up to 128 ug/ml; type: functional, organism-based
# Pseudomonas aeruginosa = experiment: Antibacterial activity against Pseudomonas aeruginosa ATCC 27853 assessed as growth inhibition up to 128 ug/ml; type: functional, organism-based
# [2] = system: Trypanosoma brucei rhodesiense; experiment: Antiprotozoal activity against trypomastigote stage of Trypanosoma brucei rhodesiense STIB900 after 72 hrs by Alamar Blue assay; type: functional, organism-based
# Enterococcus faecalis = experiment: Antibacterial activity against Enterococcus faecalis ATCC 29212 assessed as growth inhibition up to 128 ug/ml; type: functional, organism-based
# Staphylococcus aureus [3] = experiment: Antibacterial activity against Staphylococcus aureus ATCC 29213 assessed as growth inhibition up to 128 ug/ml; type: functional, organism-based
# [4] = Drug level in Sprague-Dawley rat liver microsomes assessed as CYP450-mediated compound formation treated with (S)-2-amino-3-methyl-N-((S)-3-methyl-1-((S)-3-methyl-1-((S)-3-methyl-1-oxo-1-(phenethylamino)butan-2-ylamino)-1-oxobutan-2-ylamino)-1-oxobutan-2-yl)butanamide at 1 mM preincubated with NADPH regenerating system followed by microsome addition measured after 15 to 60 mins by HR-HPLC-MS method; type: ADME; settings: 1000 µM
# [5] = Half life in Galleria mellonella hemolymph plasma at 0.5 mM by HPLC-MS method; type: ADME, cell-free
# [6] = Drug metabolism in Sprague-Dawley rat liver microsomes assessed as CYP450-mediated (S)-2-((S)-N,3-dimethyl-2-(methylamino)butanamido)-N-((S)-1-(((S)-1-(4-hydroxyphenethylamino)-3-methyl-1-oxobutan-2-yl)(methyl)amino)-3-methyl-1-oxobutan-2-yl)-N,3-dimethylbutanamide formation at 1 mM preincubated with NADPH regenerating system followed by microsome addition measured after 15 to 60 mins by HR-HPLC-MS method; type: ADME; settings: 1000 µM
# [7] = Drug metabolism in Sprague-Dawley rat liver microsomes assessed as CYP450-mediated (S)-3-hydroxy-N,3-dimethyl-N-((S)-3-methyl-1-(methyl((S)-3-methyl-1-(methyl((S)-3-methyl-1-oxo-1-(phenethylamino)butan-2-yl)amino)-1-oxobutan-2-yl)amino)-1-oxobutan-2-yl)-2-(methylamino)butanamide formation at 1 mM preincubated with NADPH regenerating system followed by microsome addition measured after 15 to 60 mins by HR-HPLC-MS method; type: ADME; settings: 1000 µM
# [8] = Drug level in Sprague-Dawley rat liver microsomes assessed as CYP450-mediated compound formation treated with (S)-2-((S)-N,3-dimethyl-2-(methylamino)butanamido)-N,3-dimethyl-N-((S)-3-methyl-1-(methyl((S)-3-methyl-1-oxo-1-(phenethylamino)butan-2-yl)amino)-1-oxobutan-2-yl)butanamide at 1 mM preincubated with NADPH regenerating system followed by microsome addition measured after 15 to 60 mins by HR-HPLC-MS method; type: ADME; settings: 1000 µM
# [9] = Drug metabolism in Sprague-Dawley rat liver microsomes assessed as CYP450-mediated (S)-2-((S)-2-((S)-2-amino-3-methylbutanamido)-3-methylbutanamido)-3-hydroxy-3-methyl-N-((S)-3-methyl-1-oxo-1-(phenethylamino)butan-2-yl)butanamide formation at 1 mM preincubated with NADPH regenerating system followed by microsome addition measured after 15 to 60 mins by HR-HPLC-MS method; type: ADME; settings: 1000 µM
# [10] = Drug metabolism in Sprague-Dawley rat liver microsomes assessed as CYP450-mediated (S)-2-amino-N-((S)-1-((S)-1-((S)-1-(4-hydroxyphenethylamino)-3-methyl-1-oxobutan-2-ylamino)-3-methyl-1-oxobutan-2-ylamino)-3-methyl-1-oxobutan-2-yl)-3-methylbutanamide formation at 1 mM preincubated with NADPH regenerating system followed by microsome addition measured after 15 to 60 mins by HR-HPLC-MS method; type: ADME; settings: 1000 µM
# [11] = Drug metabolism in Sprague-Dawley rat liver microsomes assessed as CYP450-mediated (S)-2-((S)-2-amino-3-methylbutanamido)-3-hydroxy-3-methyl-N-((S)-3-methyl-1-((S)-3-methyl-1-oxo-1-(phenethylamino)butan-2-ylamino)-1-oxobutan-2-yl)butanamide formation at 1 mM preincubated with NADPH regenerating system followed by microsome addition measured after 15 to 60 mins by HR-HPLC-MS method; type: ADME; settings: 1000 µM
SMILES,growth inhibition (GI) (Staphylococcus aureus [1]),growth inhibition (GI) (Micrococcus luteus),growth inhibition (GI) (Escherichia coli),growth inhibition (GI) (Pseudomonas aeruginosa),growth inhibition (GI) (Enterococcus faecalis),growth inhibition (GI) (Staphylococcus aureus [3]),Drug metabolism [4],further results
CN[C@@H](CC(C)C)C(=O)N(C)[C@@H](CC(C)C)C(=O)N(C)[C@@H](CC(C)C)C(=O)N(C)[C@@H](CC(C)C)C(=O)NCCc1ccccc1,inactive,inactive,inactive,inactive,inactive,inactive,,"IC50 (L6): 16.7 µg/mL; IC50 ([2]; STIB900, 72 h): 1.4 to 2.1 µg/mL"
CC(C)[C@H](N)C(=O)N[C@H](C(=O)N[C@H](C(=O)N[C@H](C(=O)NCCc1ccccc1)C(C)C)C(C)(C)O)C(C)C (H-VV[Val(3-OH)]V-NHPhenethyl),,,,,,,Metabolite_Detected,
CN[C@H](C(=O)N(C)[C@H](C(=O)N(C)[C@H](C(=O)N(C)[C@H](C(=O)NCCc1ccccc1)C(C)C)C(C)C)C(C)C)C(C)C (H-[NMeV][NMeV][NMeV][NMeV]-NHPhenethyl),inactive,inactive,inactive,inactive,inactive,inactive,,half-life at 500 µM [5]: > 240 min; Drug metabolism [6]: Metabolite_Detected; Drug metabolism [7]: Metabolite_Detected; Activity [2]: Active
CC(C)[C@H](N)C(=O)N[C@H](C(=O)N[C@H](C(=O)N[C@H](C(=O)NCCc1ccccc1)C(C)C)C(C)C)C(C)(C)O (H-V[Val(3-OH)]VV-NHPhenethyl),,,,,,,Metabolite_Detected,
CN[C@H](C(=O)N(C)[C@H](C(=O)N(C)[C@H](C(=O)N(C)[C@H](C(=O)NCCc1ccc(O)cc1)C(C)C)C(C)C)C(C)C)C(C)C (H-[NMeV][NMeV][NMeV][NMeV]-{NH(4-OH-phenethyl)}),,,,,,,,Drug metabolism [8]: Metabolite_Detected
CN[C@H](C(=O)N(C)[C@H](C(=O)N(C)[C@H](C(=O)N(C)[C@H](C(=O)NCCc1ccccc1)C(C)C)C(C)C)C(C)C)C(C)(C)O (H-[NMeVal(β-OH)][NMeV][NMeV][NMeV]-NHPhenethyl),,,,,,,,Drug metabolism [8]: Metabolite_Detected
CC(C)[C@H](N)C(=O)N[C@H](C(=O)N[C@H](C(=O)N[C@H](C(=O)NCCc1ccccc1)C(C)C)C(C)C)C(C)C (H-VVVV-NHPhenethyl),,,,,,,,Drug metabolism [9]: Metabolite_Detected; half-life at 500 µM [5]: 30 min; Drug metabolism [10]: Metabolite_Detected; Drug metabolism [11]: Metabolite_Detected
CC(C)[C@H](N)C(=O)N[C@H](C(=O)N[C@H](C(=O)N[C@H](C(=O)NCCc1ccc(O)cc1)C(C)C)C(C)C)C(C)C (H-VVVV-{NH(4-OH-phenethyl)}),,,,,,,Metabolite_Detected,
CN[C@@H](CC(C)C)C(=O)N(C)[C@@H](CC(C)C)C(=O)N(C)[C@@H](CC(C)C)C(=O)N(C)[C@@H](CC(C)C)C(=O)NCCc1ccc(O)cc1 (H-[NMeL][NMeL][NMeL][NMeL]-{NH(4-OH-phenethyl)}),inactive,inactive,inactive,inactive,inactive,inactive,,IC50 (L6): 30.6 µg/mL
